Measured values: publication PMC9822021, “Biological Activity of Amidino-Substituted Imidazo [4,5-b]pyridines” (Molecules, 2022)

Assays:
[1] = tested on: Influenza H1N1 (A/Ned/378/05); experiment: Antiviral CPE reduction assay; assay type: cell-based; details: Influenza A virus, MDCK cells
[2] = tested on: Influenza H3N2 (A/HK/7/87); experiment: Antiviral CPE reduction assay; assay type: cell-based; details: Influenza A virus, MDCK cells
[3] = tested on: Influenza B (B/Ned/537/05); experiment: Antiviral CPE reduction assay; assay type: cell-based; details: Influenza B virus, MDCK cells
[4] = Cytotoxicity in virus host cell line, MTS assay; details: dog
[5] = tested on: HCT-116 colorectal carcinoma cells; experiment: In vitro antiproliferative activity, MTS proliferation assay; assay type: cell-based; details: Homo sapiens, 72 h
From the text: (§1) Human cancer cell lines used in this manuscript, namely Capan-1, HCT-116, NCI-H460, LN-229, HL-60, K-562, Z-138, SW620, PC3 and HeLa, were acquired from the American Type Culture Collection (ATCC, Manassas, VA, USA), while the DND-41 cell line was purchased from the Deutsche Sammlung von Mikroorganismen und Zellkulturen (DSMZ Leibniz-Institut, Germany). Culture media were purchased from Gibco Life Technologies, USA, and supplemented with 10% fetal bovine serum (HyClone, GE Healthcare Life Sciences, Chicago, IL, USA), except for the media for SW620, PC3 and HeLa cells, which were purchased from Sigma.
(§2) Adherent cell lines LN-229, HCT-116, NCI-H460 and Capan-1 cells were seeded at a density between 500 and 1500 cells per well in 384-well tissue culture plates (Greiner). […]. Cells were incubated for 72 h with compounds and were then analyzed using the CellTiter 96® AQueous One Solution Cell Proliferation Assay (MTS) reagent (Promega) according to the manufacturer’s instructions. Absorbance of the samples was measured at 490 nm using a SpectraMax Plus 384 (Molecular Devices), and OD values were used to calculate the 50% inhibitory concentration (IC50). Compounds were tested in two independent experiments. SW620, PC3 and HeLa cells were seeded in 96-well microtiter plates at 1 × 10^4 to 3 × 10^4 cells/mL, depending on the doubling times of the specific cell line. Test agents were then added in five 10-fold dilutions (10^−8 to 10^−4 M). Working dilutions were freshly prepared on the day of testing. After 72 h of incubation, the cell growth rate was evaluated using the MTT assay as described previously. Absorbance of the samples was measured at 570 nm, and OD values were used to calculate the 50% inhibitory concentration (IC50). Each test was performed in quadruplicate in at least two individual experiments.

[6] = tested on: K-562 chronic myeloid leukemia cells; experiment: as above; assay type: cell-based; details: Homo sapiens, K562, 72 h
From the text: as §1, §2

[7] = tested on: LN-229 glioblastoma cells; experiment: as above; assay type: cell-based; details: Homo sapiens, 72 h
From the text: as §1, §2

[8] = tested on: NCI-H460 lung carcinoma cells; experiment: as above; assay type: cell-based; details: Homo sapiens, 72 h
From the text: as §1, §2

[9] = tested on: Capan-1 pancreatic adenocarcinoma cells; experiment: as above; assay type: cell-based; details: Homo sapiens, 72 h
Description: (§3) Culture media were purchased from Gibco Life Technologies, USA, and supplemented with 10% fetal bovine serum (HyClone, GE Healthcare Life Sciences, Chicago, IL, USA), except for the media for SW620, PC3 and HeLa cells, which were purchased from Sigma.
(§4) Cells were incubated for 72 h with compounds and were then analyzed using the CellTiter 96® AQueous One Solution Cell Proliferation Assay (MTS) reagent (Promega) according to the manufacturer’s instructions. […] Compounds were tested in two independent experiments. SW620, PC3 and HeLa cells were seeded in 96-well microtiter plates at 1 × 10^4 to 3 × 10^4 cells/mL, depending on the doubling times of the specific cell line. Test agents were then added in five 10-fold dilutions (10^−8 to 10^−4 M). Working dilutions were freshly prepared on the day of testing. After 72 h of incubation, the cell growth rate was evaluated using the MTT assay as described previously. […] Each test was performed in quadruplicate in at least two individual experiments.

[10] = tested on: DND-41 acute lymphoblastic leukemia cells; experiment: as above; assay type: cell-based; details: Homo sapiens, DND41, 72 h
Description: as §3, §4

[11] = tested on: HL-60 acute myeloid leukemia cells; experiment: as above; assay type: cell-based; details: Homo sapiens, 72 h
Description: as §3, §4

[12] = tested on: Z-138 non-Hodgkin lymphoma cells; experiment: as above; assay type: cell-based, human; details: Homo sapiens, Z-138, 72 h
From the text: as §1, §2

[13] = tested on: HeLa cervical carcinoma cells; experiment: In vitro antiproliferative activity, MTT assay; assay type: cell-based; details: Homo sapiens, 72 h
From the text: as §1, §2

[14] = tested on: PC3 prostate carcinoma cells; experiment: In vitro antiproliferative activity, MTT assay; assay type: cell-based; details: Homo sapiens, 72 h
From the text: as §1, §2

[15] = tested on: SW620 colon carcinoma cells; experiment: In vitro antiproliferative activity, MTT assay; assay type: cell-based; details: Homo sapiens, SW-620, 72 h
From the text: as §1, §2

E. coli ATCC 25922 = experiment: Antibacterial activity in vitro, broth microdilution; assay type: cell-based; details: Escherichia coli, ATCC25922; broth microdilution (CLSI), 16–24 h at 37 °C
In short: (§5)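 CLSI broth microdilution in Ca-adjusted MH media; inoculum from direct colony suspension at 0.5 McFarland, further diluted 100×.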

S. Pneumoniae ATCC 49619 = experiment: as above; assay type: cell-based; details: Streptococcus pneumoniae, ATCC49619; broth microdilution (CLSI), 16–24 h at 37 °C
In short: as §5

S. aureus ATCC 29213 = experiment: as above; assay type: cell-based; details: Staphylococcus aureus, ATCC29213; broth microdilution (CLSI), 16–24 h at 37 °C
In short: as §5

E. coli Efflux Del = experiment: microbe, parasite or virus in culture; assay type: cell-based; details: Escherichia coli, read-out: MIC E. coli Efflux Del
In short: as §5

HCoV 229E = experiment: Antiviral CPE reduction assay; assay type: cell-based; details: Human coronavirus 229E, HEL 299 cells
HCoV OC43 = experiment: Antiviral CPE reduction assay; assay type: cell-based, human coronavirus OC43; details: Betacoronavirus 1, OC43, HEL 299 cells
HCoV NL63 = experiment: Antiviral CPE reduction assay; assay type: cell-based; details: Human coronavirus NL63, Huh-7, Huh7 cells
RSV A Long = experiment: Antiviral CPE reduction assay; assay type: cell-based, respiratory syncytial virus A; details: human respiratory syncytial virus; CPE reduction, HEL 299 cells
HSV-1 KOS = experiment: Antiviral CPE reduction assay; assay type: cell-based, herpes simplex virus-1; details: Human alphaherpesvirus 1
YFV 17D = experiment: microbe, parasite or virus in culture; assay type: cell-based; details: Yellow fever virus, Huh-7, read-out: EC50 YFV 17D Huh7
Zika mr766 = experiment: Antiviral CPE reduction assay; assay type: cell-based; details: Zika virus, Huh-7, Huh7 cells
Sindbis = experiment: Antiviral CPE reduction assay; assay type: cell-based; details: Sindbis virus, Huh-7, Huh7 cells
[16] = tested on: SW620, HeLa and PC3 cancer cell lines; experiment: In vitro antiproliferative activity, all three selected cell lines (MTT); assay type: cell-based; details: Homo sapiens, range over three cell lines, 72 h
From the text: as §1
Adherent cell lines LN-229, HCT-116, NCI-H460 and Capan-1 cells were seeded at a density between 500 and 1500 cells per well in 384-well tissue culture plates (Greiner). […]. Cells were incubated for 72 h with compounds and were then analyzed using the CellTiter 96® AQueous One Solution Cell Proliferation Assay (MTS) reagent (Promega) according to the manufacturer’s instructions. Absorbance of the samples was measured at 490 nm using a SpectraMax Plus 384 (Molecular Devices), and OD values were used to calculate the 50% inhibitory concentration (IC50). Compounds were tested in two independent experiments. […] After 72 h of incubation, the cell growth rate was evaluated using the MTT assay as described previously. […]

in vitro [17] = details: human
in vitro [18] = details: human; remark: listed apart in the source
in vitro [19] = details: dog

CC(N)C12CC3CC(CC(C3)C1)C2 (centres unmarked) [Rimantadine, rimantadine, reference compound]
EC50 [1]: 4.4 ± 4.2 µM | EC50 [2]: 0.05 ± 0.05 µM | EC50 [3]: > 100 µM | CC50 [4]: > 100 µM

N#Cc1ccc(-c2nc3ncc(Br)cc3[nH]2)cc1 [Compound 8, 4-(6-Bromo-1H-imidazo[4,5-b]pyridin-2-yl)benzonitrile]
IC50 [5]: > 100 µM | IC50 [6]: > 100 µM | IC50 [7]: > 100 µM | IC50 [8]: > 100 µM | IC50 [9]: > 100 µM | IC50 [10]: > 100 µM | IC50 [11]: > 100 µM | IC50 [12]: > 100 µM | IC50 [13]: 1.8 ± 0.02 µM | IC50 [14]: 3.2 ± 0.7 µM | IC50 [15]: 2 ± 0.2 µM | MIC (E. coli ATCC 25922): > 64 µM | MIC (S. Pneumoniae ATCC 49619): > 64 µM | MIC (S. aureus ATCC 29213): > 64 µM | MIC (E. coli Efflux Del): > 64 µM | EC50 (HCoV 229E): > 100 µM | EC50 (HCoV OC43): > 100 µM | EC50 (HCoV NL63): > 100 µM | EC50 [1]: 72.4 ± 8 µM | EC50 [2]: 35.9 ± 12.4 µM | EC50 [3]: 56.7 ± 10.2 µM | EC50 (RSV A Long): > 100 µM | EC50 (HSV-1 KOS): > 100 µM | EC50 (YFV 17D): > 100 µM | EC50 (Zika mr766): > 100 µM | EC50 (Sindbis): > 100 µM | IC50 [16]: 1.8 to 3.2 µM | melting point: > 300 °C | CC50 (in vitro [17]): > 100 µM | CC50 (in vitro [18]): > 100 µM | CC50 (in vitro [19]): > 100 µM
